Among the data in PubChem BioAssay (NCI) are TGI and GI50 values, retold here.

Common to all, as to test: NCI tumour cell line growth inhibition, 48 h
Test [1] relates to NCI/ADR-RES ovarian.
Test [2] relates to U251 CNS.
For test [3], the system named is UO-31 renal.
In test [4] the test system is DU-145 prostate.
For test [5], the system named is OVCAR-4 ovarian.
Test [6] deals with IGROV1 ovarian.
For test [7], the system named is K-562 leukemia.
For test [8], the system named is HCT-15 colon.
Test [9] has as its system HCT-116 colon.
Test [10] concerns COLO 205 colon.

SMILES strings stand for the structures.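 Where inhibition never reached the appropriate level, the endpoint shown equals the highest concentration tested. Otherwise, values were interpolated linearly from a five-concentration, 48-hour dose response in 96-well plates. Abbreviation: GI50, concentration required for 50% inhibition of growth. TGI: concentration producing complete growth inhibition.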

In the case of `C/C(=N\O)c1cccc(Nc2c3ccccc3nc3occc23)c1`, the TGI was more than 100 µM in [1]; more than 100 µM in test [2]; more than 100 µM in test [3]; 59.2 µM in test [4]; 9.59 µM in test [5]; 13.2 µM in test [6]. In addition, the TGI is more than 100 µM in test [7], more than 100 µM in test [8], 18.8 µM in test [9] and more than 100 µM in [10].
For the compound `CN(C)NC1=NS(=O)(=O)c2cc3c(=O)n(C)[nH]c3cc2S1`, the TGI in test [1], in test [2], in test [3], in test [4], in [5] and in test [6] was more than 10 µM each time. Besides, the TGI in test [7], in test [8], in [9] and in test [10] was more than 10 µM throughout.
With `OCC1OC(n2cnc3c(Cl)nc(Nc4ccc(Cl)c(Cl)c4)nc32)CC1O` (stereo not given), the TGI is 25.3 µM in test [1]; 23.8 µM in test [2]; 31.4 µM in test [3]; 48.6 µM in [4]; 41.8 µM in test [5]; 27.8 µM in test [6]. The TGI in [7] stood at 49.4 µM; in [8], 21.7 µM; in test [9], 28.9 µM; in test [10], 20.5 µM.
For `NS(=O)(=O)c1ccc(NC(=O)c2ccc3nc4ccccc4c(Nc4ccc(S(N)(=O)=O)cc4)c3c2)cc1`, the TGI in test [1], in test [2], in test [3], in test [4], in test [5] and in test [6] was more than 100 µM each time. The TGI in test [7], in [8], in test [9] and in [10] was more than 100 µM in each case.
Turning to `Nc1ncnc2c1ccn2-c1cccc(NC(=O)c2ccc(N3CCOCC3)c(C(F)(F)F)c2)c1`, the GI50 was 2930 nM in [1]; 2410 nM in [2]; 2800 nM in test [3]; 3.2 µM in [4]; 3.57 µM in [5]; 3.83 µM in test [6]. Besides, the GI50 was 2410 nM in test [7], 2740 nM in test [8], 2710 nM in [9] and 3.79 µM in test [10]. Further, the TGI in test [1] stood at 23.4 µM; in test [2], 6.44 µM; in [3], 6.73 µM; in [4], 12.1 µM; in test [5] it was 12.5 µM; in test [6], 33.2 µM. Besides, the TGI in [7] was 16 µM; in test [8] it was 10.4 µM; in test [9] it was 10.3 µM; in test [10], 15.1 µM.
As for `CCOc1cc2c(cc1O)C(=O)C[C@@H]1[C@@H]2CC[C@]2(C)[C@@H](O)CC[C@@H]12`, the TGI is 8.27 µM in [1]; more than 51.9 µM in [2]; more than 100 µM in test [3]; more than 51.9 µM in test [4]; more than 100 µM in test [5]; more than 30.3 µM in [6]. In addition, the TGI was found to be 2.27 µM in test [7], 29.3 µM in [8], 38 µM in test [9] and 47.4 µM in [10].
`C=C(C)COc1cc(NC(=S)OC(C)C)ccc1Cl`: the TGI in test [1] was 30.1 µM; in [2] it was 30.8 µM; in test [3], 26.9 µM; in [4], 31.1 µM; in test [5], 28.3 µM; in [6], 31 µM. The TGI in test [7] is 38.7 µM; in test [8] it was 30.6 µM; in [9], 28.4 µM; in [10] it was 31.6 µM.
Regarding `CN1CCN(c2n[nH]c(=O)c3c2nnn3C2CCCCC2)CC1`, the TGI in test [1], in test [2], in [3], in test [4], in test [5] and in [6] was more than 100 µM each time. Also, the TGI in test [7], in test [8], in [9] and in test [10] was more than 100 µM throughout.
With `O=C1N[C@H](C(=O)O)[C@@H](c2ccc(OCc3ccccc3)cc2)O1`, the TGI in test [1] is 65.3 µM; in [2], more than 100 µM; in test [3], more than 100 µM; in test [4], more than 100 µM; in [5], more than 100 µM; in test [6] it was 78.6 µM. Besides, the TGI in test [7], in [8], in [9] and in [10] was more than 100 µM each time.
For the compound `CC(C)C(=O)/C=C/c1c(Cl)cccc1Cl`, the TGI came to 9.23 µM in [1]; 11.7 µM in test [2]; 16 µM in test [3]; 11.8 µM in test [4]; 9.4 µM in test [5]; 14.2 µM in test [6]. In addition, the TGI in [7] is more than 100 µM; in [8], 17.8 µM; in [9], 5.83 µM; in test [10], 22.4 µM.
Regarding `CC(C)=CCc1cc(/C=C/C(=O)O)cc(CC=C(C)C)c1O`, the TGI in [1], in test [2], in test [3], in [4], in [5] and in test [6] was more than 100 µM throughout. Further, the TGI in test [7], in test [8], in test [9] and in [10] was more than 100 µM in each case.
